Measured values: BindingDB's records for PubMed 38988222 (Hebei University of Science & Technology)

Legend:
[1] = biological target: PI3K catalytic subunit gamma; experiment: Inhibition of P13Kgamma (unknown origin) in the presence of ATP by scintillation proximity assay
[2] = biological target: PI3K catalytic subunit beta; experiment: Inhibition of P13Kbeta (unknown origin) in the presence of ATP by scintillation proximity assay
[3] = Inhibition of Ribosomal protein S6 kinase in human THP-1 cells by ELISA analysis

| SMILES | IC50 [1] [nM] | IC50 [2] [nM] | further results |
| --- | --- | --- | --- |
| Cc1cc(S(=O)(=O)N[C@H]2CC[C@H](O)CC2)ccc1-c1cnc2c(N)c(Cl)ccn12 | < 100 |  |  |
| Cc1ncc(-c2cc(-c3ccc(S(=O)(=O)NCC(C)(C)O)cc3C)cnc2N)o1 |  | 1700 |  |
| CC(NC(=O)c1c(N)nn2cccnc12)c1cc(Cl)c2c(C#N)ncn2c1N1CCS(=O)(=O)C(C)C1 (stereo unspecified) |  |  | IC50 [3]: < 300 nM |
| Cc1nnc(-c2cc(-c3cc4c(c(S(C)(=O)=O)c3)C(=O)N([C@@H](C)C3CC3)C4)ccn2)[nH]1 [US11396502, Example 12] | < 100 |  |  |
| Cc1cc(S(=O)(=O)N[C@H]2CC[C@H](O)CC2)ccc1-c1cnc(N)c(C(=O)C2CC2)n1 |  | 400 |  |
| Clc1ccc(Cn2cc(-c3ccnc(-c4ncc(-c5ccccc5)[nH]4)c3)cn2)cc1 [US11352340, Example 1] | < 50 |  |  |
